# Where a name gives a salt, the structure may show the parent alone.
# Assays:
# [1] = system: purified Clonostachys compactiuscula esterase; type: biochemical; conditions: within 16 h; enzyme 4.0 or 40.0 microgram/ml, simvastatin 10 or 35 mM, pH 7.8 or 9.5, methanol 0-20% v/v (conditions listed in table 1)
# Method: Clonostachys compactiuscula esterase was purified from 57 g mycelial cells which had been grown up in medium EN using the methods detailed in Examples 1 and 3. The use of a Pharmacia HR 10/10 MONO Q® column allowed the application of 85 mL of crude cell-free extract per purification run. In total 0.89 mg of purified esterase was obtained (in a volume of 10 mL) which was then concentrated to 0.175 mg protein/mL by ultrafiltration using a 10,000 molecular weight cut-off CENTRIPREP® device (AMICON®).
# Other conditions which were varied were pH (7.8 and 9.5 were assessed) and methanol concentration (0, 10 and 20% [v/v, final concentration]). The reactions were buffered by the inclusion of either 100 mM TRIS (in the case of reactions carried out at pH 7.8) or 100 mM glycine […]. Greater than 90% hydrolysis of residual lovastatin acid to triol acid was obtained within 16 h under the following conditions: […]
# [2] = system: crude homogenate of Clonostachys compactiuscula; type: biochemical; conditions: equal volumes of crude homogenate (about 0.5 mg/ml protein) and lovastatin acid ammonium salt 5 g/L, 29° C., within 2 hrs
# Method: Clonostachys compactiuscula ATCC 38009 was grown in 250 ml shake flasks containing 12 ml of medium EN at 29° C. for 3 days. Lovastatin ammonium salt was added to give a concentration of 2.5 g/L and fermentation was continued for 2 additional days. To prepare the crude homogenate, the culture was harvested by centrifugation at 3000 rpm for 10 minutes, after which it was washed with 50 mM of N-tris(hydroxymethyl)methyl-2-aminoethanesulfonic acid (TES) buffer, pH 7.7. The culture medium was again centrifuged and the cell mass was chilled on ice and then subjected to grinding in a mortar and pestle containing glass fragments and powdered dry ice. The contents of 1 shake flask was resuspended in 2.0 ml of 50 mM TES buffer and centrifuged at 6000 rpm for 10 minutes to remove cell debris and glass fragments. The supernatant was used as the source of crude homogenate with protein concentration of approximately 0.5 mg/ml.
# In order to carry out the biotransformation, one volume of crude homogenate was combined with an equal volume of lovastatin acid ammonium salt (5 g/L), and the mixture was incubated at 29° C. Using this method, 80-90% conversion of lovastatin acid to triol acid was observed within 2 hrs.
# [3] = system: purified lovastatin acid hydrolase from Clonostachys compactiuscula; experiment: Km and specific activity of purified hydrolase with lovastatin ammonium salt as substrate; type: biochemical; conditions: for specific activity: saturating substrate conditions
# Method: A hydrolytic enzyme which carries out the biotransformation of lovastatin acid to triol acid was purified by Fast Protein Liquid Chromatography (FPLC*) employing a MONO Q® anion exchange column to near homogeneity from homogenates of Clonostachys compactiuscula employing the procedures described below.
# The supernatant from the 6,000 rpm centrifugation as in Example 2 above, but where 50 mM of tris(hydroxymethyl)aminomethane (TRIS) buffer (pH 7.8) is substituted for 50 mM TES buffer, was centrifuged at 15,000 rpm for 20 minutes and the resulting supernatant filtered through a […] filter. Batches (10 mL) of filtrate containing 0.3-0.5 mg/mL protein were then applied at a rate of 1.0-2.0 mL/minute to a Pharmacia MONO Q® (HR 5/5) anion exchange column connected to a Pharmacia Fast Protein Liquid Chromatography (FPLC) system.
# (§1) After allowing binding of the anionic proteins to the column matrix, the hydrolase was specifically eluted by the application of a linear gradient of sodium chloride (0-500 mM) in 20 mM TRIS, pH 7.8. […] When the latter substrate was used, the hydrolytic reaction was monitored spectrophotometrically at 410 nm essentially as described by Lawrence, R. C. et al. in J. Gen. Microbiol. (1967) 48, 401-418.
# Using the purified enzyme preparation, the biotransformation was carried out in accordance with the procedures described above in Examples 1, 2, 4 and 6, and an estimate was made of the hydrolase's Km and specific activity with lovastatin ammonium salt as substrate. […]
# as §1, with “mM).” for “mM) in 20 mM TRIS, pH 7.8.”, “Microbiol. (1967) 48, 401-418.” left out
# [4] = system: crude hydrolase (6000 rpm supernatant) of Clonostachys compactiuscula ATCC 38009; conditions: lovastatin 1.4 mM and simvastatin 18.6 mM ammonium salts solution, 50 mM Tris pH 7.8, methanol, 29 C., after 17 h
# Method: The resulting homogenized, frozen powder was transferred to a suitable tube and the material remaining in the mortar washed into the same tube using a minimal volume of 50 mM Tris, pH 7.8. The mixture was then allowed to thaw and then centrifuged at 6000 rpm for 10 minutes to remove large cell debris and glass.
# The 6000 rpm supernatant was used as a crude source of hydrolase and 0.8 mL was mixed with 0.2 mL methanol and 1.0 mL of a solution of simvastatin (18.6 mM and lovastatin (1.4 mM) ammonium salts in 50 MM Tris, pH 7.8.) The reaction mixture was incubated at 29 C. and sampled after 1 h, 2 h, and 17 h by removing 0.1 mL and diluting with 0.9 mL methanol. The samples were then subjected to analysis by HPLC using a Whatman C-8 column as stationary phase and a 60:40 mixture of acetonitrile: 0.5% phosphoric acid as mobile phase; under these conditions the respective retention times for simvastatin, lovastatin and triol ammonium salts are 4.4 min., 3.8 min., and 2.5 min.
hydrolysis of residual lovastatin acid to triol acid [1],conversion of lovastatin acid to triol acid [2],"Km ([3]; lovastatin ammonium salt as substrate, purified enzyme preparation)",conversion of lovastatin (HPLC area percent reduction) [4],Compound,specific activity ([3]; Example 3),specific activity ([3]; Example 4)
Greater than 90%,80-90%,–,–,CC[C@H](C)C(=O)O[C@H]1C[C@@H](C)C=C2C=C[C@H](C)[C@H](CC[C@@H](O)C[C@@H](O)CC(=O)O)[C@H]21 [lovastatin acid],–,–
–,–,4.14 mM,greater than 99%,CC[C@H](C)C(=O)O[C@H]1C[C@@H](C)C=C2C=C[C@H](C)[C@H](CC[C@@H](O)C[C@@H](O)CC(=O)O)[C@H]21 [lovastatin ammonium salt],0.04 mmol lovastatin ammonium salt hydrolyzed/mg protein per minute,0.11 mmol lovastatin ammonium salt/mg protein per hour

# From patent US5223415A, “Biosynthetic production of 7-[1',2',6',7',8',8a'(R)-hexahydro-2'(S),6'(R)-dimethyl-8'(S)-hydroxy-1' (S)-naphthyl]-3(R),5(R)-dihydroxyheptanoic acid (triol acid)” (Merck & Co., Inc., priority 1992, dated 1993)
